Experimental findings from patent EP4725957A1, “GROUP OF CYCLIC ALKALINE LIPOPEPTIDE COMPOUNDS, AND PREPARATION METHOD THEREFOR AND USE THEREOF” (Institute of Medicinal Biotechnology, Chinese Academy of …, priority 2023, dated 2024) are described below.

Structures are written as SMILES. Converted amounts (≈) assume the structure as drawn. Where two headings read alike, the source gives them in different places. Bridge positions count the residues as written; N and C are the ends. Square brackets hold non-standard residues; d marks the D form. Peptide text beside a SMILES is read from it. * marks the point of attachment. Heptanoyl(6-Me) = CC(C)CCCCC(=O)*; dOrn = NCCC[C@@H](N)C(=O)O; Nonanoyl = CCCCCCCCC(=O)*; X1 = CC[C@H](C)CCCCC(=O)*; Octanoyl = CCCCCCCC(=O)*; Orn = NCCC[C@H](N)C(=O)O; dDap = NC[C@@H](N)C(=O)O; Dab = NCC[C@H](N)C(=O)O; Dap = NC[C@H](N)C(=O)O

Format in all cases: cell-based
Data set [1] deals with Pseudomonas aeruginosa PAE19-3. The method, boiled down:
(§1)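 The MIC value comes from CLSI broth microdilution after 16-20 h at 35-37°C. Cyclic lipopeptides in Mueller-Hinton broth spanned 64 to 0.03 mg/L final, with each well carrying (2-4) × 10^5 CFU/mL.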

The subject of data set [2] is Escherichia coli ATCC BAA-2340 (KPC). The procedure, abridged:
as §1

The subject of data set [3] is Escherichia coli ATCC BAA-2523. The method, boiled down: as §1
The test system of data set [4] is Klebsiella pneumoniae KPN+19-15. The procedure, abridged:
as §1

Data set [5] has as its system Klebsiella pneumoniae ATCC BAA-1705 (KPC). The method, boiled down: as §1
For data set [6], the system named is Pseudomonas aeruginosa ATCC 27853. The method, boiled down: as §1
In data set [7] the test system is Acinetobacter baumannii NCTC 13304 (OXA-27). The method, boiled down:
as §1

Data set [8] has as its system Acinetobacter baumannii ABA19-1. The procedure, abridged:
as §1

Data set [9] can be described thus: Nephrotoxicity assay: in vitro cytotoxicity of HK-2 cells by CCK-8 assay. Particulars: human, HK-2 cells (human renal), 72 h incubation with drug-containing medium. The method, boiled down: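 Compounds in sterile water, diluted to final 500, 250, 200, 100, 50, 25 and 12.5 µg/mL, were applied for 72 h to human HK-2 kidney cells. Absorbance at 450 nm after 3 h CCK-8 gave viability against untreated wells, and IC50 came from logarithmic regression; three replicates.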
A general note: Tetrazolium assays rely on reduction of a dye to a coloured formazan, in cell work by metabolically active cells.

The term MIC denotes the least concentration at which growth counts as inhibited. The low end stands for inhibition by little substance, the high end for a need for much substance. What is called IC50 is the concentration that gives 50% inhibition. A lower IC50 goes with higher potency. In the case of `CCCCCCCCC(=O)N[C@@H](CCCN)C(=O)N[C@H](C(=O)N[C@H](CO)C(=O)N[C@H]1CCNC(=O)[C@H]([C@@H](C)O)NC(=O)[C@H](CCN)NC(=O)[C@H](CCN)NC(=O)[C@H]([C@@H](C)O)NC(=O)[C@@H](Cc2ccccc2)NC(=O)[C@H](CCN)NC1=O)[C@@H](C)O` [Compound 60, Nonanoyl-Orn-Thr-D-Ser-ring(4-10)[Dab-Dab-D-Phe-Thr-Dab-Dab-Thr]] (Nonanoyl-[Orn]T[dS][Dab][Dab][dF]T[Dab][Dab]T; lactam 4-C), the MIC is given as 8 µg/mL (≈ 6.71 µM) in data set [1] (PAE19-3); 0.25 µg/mL (≈ 0.21 µM) in data set [2] (ATCC BAA-2340); 0.25 µg/mL (≈ 0.21 µM) in [3] (ATCC BAA-2523); 0.5 µg/mL (≈ 0.419 µM) in data set [4] (KPN+19-15); 0.25 µg/mL (≈ 0.21 µM) in data set [5] (ATCC BAA-1705); 64 µg/mL (≈ 53.7 µM) in data set [6] (ATCC 27853). In addition, the MIC in data set [7] (NCTC 13304) and in data set [8] (ABA19-1) was 0.25 µg/mL (≈ 0.21 µM) in each case. In addition, the IC50 at 72 h in data set [9] came to 281 ± 9.5 µg/mL (≈ 235 µM).
On to `CC(C)CCCCC(=O)N[C@@H](CCN)C(=O)N[C@H](C(=O)N[C@H](CO)C(=O)N[C@H]1CCNC(=O)[C@H]([C@@H](C)O)NC(=O)[C@H](CCN)NC(=O)[C@H](CCCN)NC(=O)[C@H]([C@@H](C)O)NC(=O)[C@@H](Cc2ccccc2)NC(=O)[C@H](CCN)NC1=O)[C@@H](C)O` [Compound 77, 6-methylheptanoyl-Dab-Thr-D-Ser-ring(4-10)[Dab-Dab-D-Phe-Thr-Orn-Dab-Thr]] ({Heptanoyl(6-Me)}-[Dab]T[dS][Dab][Dab][dF]T[Orn][Dab]T; lactam 4-C), for which the MIC in data set [1] (PAE19-3) is recorded as 64 µg/mL (≈ 54.3 µM); in data set [2] (ATCC BAA-2340), no more than 0.03 µg/mL; in [3] (ATCC BAA-2523) it was no more than 0.03 µg/mL; in [4] (KPN+19-15), 0.5 µg/mL (≈ 0.424 µM); in [5] (ATCC BAA-1705) it was 0.25 µg/mL (≈ 0.212 µM); in data set [6] (ATCC 27853) it was greater than 64 µg/mL. Moreover, the MIC in [7] (NCTC 13304) is recorded as no more than 0.03 µg/mL; in data set [8] (ABA19-1), 0.06 µg/mL (≈ 0.0509 µM). This compound displayed an IC50 at 72 h in [9] greater than 500 µg/mL.
With `CC(C)CCCCC(=O)N[C@@H](CCN)C(=O)N[C@H](C(=O)N[C@H](CCCN)C(=O)N[C@H]1CCNC(=O)[C@H]([C@@H](C)O)NC(=O)[C@H](CCN)NC(=O)[C@H](CCN)NC(=O)[C@H]([C@@H](C)O)NC(=O)[C@@H](Cc2ccccc2)NC(=O)[C@H](CCN)NC1=O)[C@@H](C)O` [Compound 22, 6-methylheptanoyl-Dab-Thr-D-Orn-ring(4-10)[Dab-Dab-D-Phe-Thr-Dab-Dab-Thr]] ({Heptanoyl(6-Me)}-[Dab]T[dOrn][Dab][Dab][dF]T[Dab][Dab]T; lactam 4-C), the MIC in [1] (PAE19-3) is given as 1 µg/mL (≈ 0.839 µM); in [2] (ATCC BAA-2340), no more than 0.03 µg/mL; in data set [3] (ATCC BAA-2523), no more than 0.03 µg/mL; in data set [4] (KPN+19-15) it was 0.125 µg/mL (≈ 0.105 µM); in [5] (ATCC BAA-1705), 0.06 µg/mL (≈ 0.0504 µM); in data set [6] (ATCC 27853) it was 0.25 µg/mL (≈ 0.21 µM). Besides, the MIC in data set [7] (NCTC 13304) is reported as 0.06 µg/mL (≈ 0.0504 µM); in data set [8] (ABA19-1), 0.125 µg/mL (≈ 0.105 µM). Also, the IC50 at 72 h in data set [9] was greater than 500 µg/mL.
With `CCCCCCCC(=O)N[C@@H](CCN)C(=O)N[C@H](C(=O)N[C@@H](CN)C(=O)N[C@H]1CCNC(=O)[C@H]([C@@H](C)O)NC(=O)[C@H](CCN)NC(=O)[C@H](CCN)NC(=O)[C@H](CC(C)C)NC(=O)[C@@H](Cc2ccccc2)NC(=O)[C@H](CCN)NC1=O)[C@@H](C)O` [Compound 38, Octanoyl-Dab-Thr-Dap-ring(4-10)[Dab-Dab-D-Phe-Leu-Dab-Dab-Thr]] (Octanoyl-[Dab]T[Dap][Dab][Dab][dF]L[Dab][Dab]T; lactam 4-C), the MIC was found to be 0.25 µg/mL (≈ 0.213 µM) in data set [1] (Pseudomonas aeruginosa PAE19-3); 0.03 µg/mL (≈ 0.0255 µM) in data set [2] (Escherichia coli ATCC BAA-2340 (KPC)); 0.03 µg/mL (≈ 0.0255 µM) in data set [3] (Escherichia coli ATCC BAA-2523); 0.03 µg/mL (≈ 0.0255 µM) in data set [4] (Klebsiella pneumoniae KPN 19-15); 0.03 µg/mL (≈ 0.0255 µM) in data set [5] (Klebsiella pneumoniae ATCC BAA-1705 (KPC)); 0.03 µg/mL (≈ 0.0255 µM) in [6] (Pseudomonas aeruginosa ATCC27853). The MIC in data set [7] (Acinetobacter baumannii NCTC 13304 (OXA-27)) and in data set [8] (Acinetobacter baumannii ABA19-1) was 0.03 µg/mL (≈ 0.0255 µM) throughout. Besides, the IC50 at 72 h in data set [9] worked out at 219 ± 9.4 µg/mL (≈ 186 µM).
As to `CC[C@H](C)CCCCC(=O)N[C@@H](CCN)C(=O)N[C@H](C(=O)N[C@H](CN)C(=O)N[C@H]1CCNC(=O)[C@H]([C@@H](C)O)NC(=O)[C@H](CCN)NC(=O)[C@H](CCN)NC(=O)[C@H]([C@@H](C)O)NC(=O)[C@@H](Cc2ccccc2)NC(=O)[C@H](CCN)NC1=O)[C@@H](C)O` [Compound 1, (S)-6-methyloctanoyl-Dab-Thr-D-Dap-ring(4-10)[Dab-Dab-D-Phe-Thr-Dab-Dab-Thr]] (X1-[Dab]T[dDap][Dab][Dab][dF]T[Dab][Dab]T; lactam 4-C), the MIC in [1] (PAE19-3) is given as 0.125 µg/mL (≈ 0.106 µM); in data set [2] (ATCC BAA-2340) it was no more than 0.03 µg/mL; in data set [3] (ATCC BAA-2523) it was no more than 0.03 µg/mL; in [4] (KPN+19-15), no more than 0.03 µg/mL; in [5] (ATCC BAA-1705), no more than 0.03 µg/mL; in data set [6] (ATCC 27853) it was 0.03 µg/mL (≈ 0.0255 µM). The MIC in data set [7] (NCTC 13304) and in [8] (ABA19-1) was no more than 0.03 µg/mL each time. The compound also gave an IC50 at 72 h in data set [9] greater than 500 µg/mL.
`CCCCCCCC(=O)N[C@@H](CCN)C(=O)N[C@H](C(=O)N[C@@H](CCN)C(=O)N[C@H]1CCNC(=O)[C@H]([C@@H](C)O)NC(=O)[C@H](CCN)NC(=O)[C@H](CCN)NC(=O)[C@H]([C@@H](C)O)NC(=O)[C@@H](Cc2ccccc2)NC(=O)[C@H](CCN)NC1=O)[C@@H](C)O` [Compound 18, Octanoyl-Dab-Thr-Dab-ring(4-10)[Dab-Dab-D-Phe-Thr-Dab-Dab-Thr]] (Octanoyl-[Dab]T[Dab][Dab][Dab][dF]T[Dab][Dab]T; lactam 4-C): the MIC in [1] (PAE19-3) is recorded as 0.5 µg/mL (≈ 0.425 µM); in data set [2] (ATCC BAA-2340) it was 0.06 µg/mL (≈ 0.051 µM); in [3] (ATCC BAA-2523), no more than 0.03 µg/mL; in data set [4] (KPN+19-15) it was no more than 0.03 µg/mL; in [5] (ATCC BAA-1705), 0.5 µg/mL (≈ 0.425 µM); in [6] (ATCC 27853) it was 0.5 µg/mL (≈ 0.425 µM). For the same compound, the MIC in data set [7] (NCTC 13304) amounted to 0.25 µg/mL (≈ 0.212 µM); in data set [8] (ABA19-1), 0.5 µg/mL (≈ 0.425 µM). The same compound had a concentration for half-maximal inhibition (IC50) at 72 h in data set [9] greater than 500 µg/mL.
Consider `CCCCCCCCC(=O)N[C@@H](CCN)C(=O)N[C@H](C(=O)N[C@@H](CCCN)C(=O)N[C@H]1CCNC(=O)[C@H]([C@@H](C)O)NC(=O)[C@H](CCN)NC(=O)[C@H](CCN)NC(=O)[C@H](CC(C)C)NC(=O)[C@@H](Cc2ccccc2)NC(=O)[C@H](CCN)NC1=O)[C@@H](C)O` [Compound 50, Nonanoyl-Dab-Thr-Orn-ring(4-10)[Dab-Dab-D-Phe-Leu-Dab-Dab-Thr]] (Nonanoyl-[Dab]T[Orn][Dab][Dab][dF]L[Dab][Dab]T; lactam 4-C), for which the MIC stood at 0.5 µg/mL (≈ 0.411 µM) in data set [1] (PAE19-3); 0.06 µg/mL (≈ 0.0493 µM) in data set [2] (ATCC BAA-2340); 0.06 µg/mL (≈ 0.0493 µM) in data set [3] (ATCC BAA-2523); 0.03 µg/mL (≈ 0.0246 µM) in data set [4] (KPN+19-15); 0.03 µg/mL (≈ 0.0246 µM) in data set [5] (ATCC BAA-1705); 0.03 µg/mL (≈ 0.0246 µM) in [6] (ATCC 27853). Also, the MIC in data set [7] (NCTC 13304) stood at 0.06 µg/mL (≈ 0.0493 µM); in data set [8] (ABA19-1), 0.125 µg/mL (≈ 0.103 µM). In [9], this compound registered an IC50 at 72 h of 150 ± 5.2 µg/mL (≈ 123 µM).
